PubChem BioAssay AID330 (DTP/NCI, 2004)
“And” between values parts separate entries of the source, which are not always exact repeats. Equal entries are not always repeated. Toxic doses and inconclusive results are not listed. How the source made its calls: active means survival T/C of 150% or more; inactive means T/C below 125% in these data. Square brackets hold non-standard residues; d marks the D form. Peptide text beside a SMILES is read from it. Ac5c = NC1(C(=O)O)CCCC1

System: P388 leukemia ip, CD2F1 mice, survival T/C
Assay: NCI In Vivo Anticancer Drug Screen. Data for tumor model P388 Leukemia (intraperitoneal) in CD2F1 (CDF1) mice
Details: endpoint: median survival time, higher = longer survival
Procedure, shortened: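 Mice carrying the transplanted tumor received test compound or vehicle. Survival was recorded in each group, and the value is the treated-group measurement divided by that of the vehicle-treated control group.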

[1] = dose: 100.0 mg/kg/injection, schedule: Q01DX001 (ip), vehicle: Klucel (hydroxypropylcellulose) (HPC)
[2] = dose: 200.0 mg/kg/injection, schedule: Q01DX001 (ip), vehicle: Klucel (hydroxypropylcellulose) (HPC)
[3] = dose: 50.0 mg/kg/injection, schedule: Q01DX009 (ip), vehicle: saline
[4] = dose: 100.0 mg/kg/injection, schedule: Q01DX009 (ip), vehicle: saline
[5] = dose: 200.0 mg/kg/injection, schedule: Q01DX009 (ip), vehicle: saline
[6] = dose: 100.0 mg/kg/injection, schedule: Q04DX003 (ip), vehicle: saline
[7] = dose: 200.0 mg/kg/injection, schedule: Q04DX003 (ip), vehicle: saline
[8] = dose: 400.0 mg/kg/injection, schedule: Q04DX003 (ip), vehicle: saline
[9] = dose: 50.0 mg/kg/injection, schedule: Q01DX005 (ip), vehicle: Klucel (hydroxypropylcellulose) (HPC)
[10] = dose: 100.0 mg/kg/injection, schedule: Q01DX005 (ip), vehicle: Klucel (hydroxypropylcellulose) (HPC)
[11] = dose: 200.0 mg/kg/injection, schedule: Q01DX005 (ip), vehicle: Klucel (hydroxypropylcellulose) (HPC)
[12] = dose: 50.0 mg/kg/injection, schedule: Q01DX005 (ip), vehicle: saline with Tween-80
[13] = dose: 100.0 mg/kg/injection, schedule: Q01DX005 (ip), vehicle: saline with Tween-80
[14] = dose: 200.0 mg/kg/injection, schedule: Q01DX005 (ip), vehicle: saline with Tween-80

Measured: T/C

CCOC(=O)Cn1c(O)c(C2=c3cc(Br)ccc3=NC2=O)sc1=O
inactive: [1] 95 % of control | [2] 98 % of control | dose: 400.0 mg/kg/injection, schedule: Q01DX001 (ip), vehicle: Klucel (hydroxypropylcellulose) (HPC) 99 % of control

CC1C(=O)CCC2(C)C1CCC1C3CCC(O)C3(C)CCC12 (configuration not stated)
inactive: dose: 12.5 mg/kg/injection, schedule: Q01DX009 (ip), vehicle: saline with Tween-80 95 % of control | dose: 25.0 mg/kg/injection, schedule: Q01DX009 (ip), vehicle: saline with Tween-80 109 % of control | dose: 50.0 mg/kg/injection, schedule: Q01DX009 (ip), vehicle: saline with Tween-80 95 % of control

OCC12OCC(C=CC1O)O2 (configuration not stated)
inactive: dose: 60.0 mg/kg/injection, schedule: Q01DX005 (ip), vehicle: saline 99 % of control | dose: 120.0 mg/kg/injection, schedule: Q01DX005 (ip), vehicle: saline 91 % of control | dose: 240.0 mg/kg/injection, schedule: Q01DX005 (ip), vehicle: saline 98 % of control

CCCCCCCC[N+]1([O-])CCOCC1
inactive: [3] 108 % of control | [4] 97 % of control | [5] 88 % of control

CCC[CH2][Sn]([N]=C=S)([N]=C=S)[N]=C=S.O=P(c1ccccc1)(c1ccccc1)c1ccccc1.O=P(c1ccccc1)(c1ccccc1)c1ccccc1
inactive: [6] 98 % of control | [7] 100 % of control | [8] 99 % of control

Brc1ccc(COC2C[C@]34CC=CC[C@@]3(C2)O4)cc1 (some centres not stated)
inactive: [9] 105 % of control | [10] 103 % of control | [11] 105 % of control

CCc1nc(N)nc(N)c1-c1ccc(N2CC[N+](C)(C)CC2)cc1
inactive: dose: 0.24 mg/kg/injection, schedule: Q01DX005 (ip), vehicle: saline with Tween-80 99 % of control | dose: 0.48 mg/kg/injection, schedule: Q01DX005 (ip), vehicle: saline with Tween-80 101 % of control | dose: 0.94 mg/kg/injection, schedule: Q01DX005 (ip), vehicle: saline with Tween-80 105 % of control | dose: 0.96 mg/kg/injection, schedule: Q01DX005 (ip), vehicle: saline with Tween-80 119 % of control

O=C(Nc1ccc([N+](=O)[O-])cc1)c1c2ccccc2nc2ccccc12
inactive: dose: 50.0 mg/kg/injection, schedule: Q01DX005 (ip), vehicle: suspension in saline 92 % of control | dose: 100.0 mg/kg/injection, schedule: Q01DX005 (ip), vehicle: suspension in saline 100 % of control | dose: 200.0 mg/kg/injection, schedule: Q01DX005 (ip), vehicle: suspension in saline 104 % of control

Cc1cc(N2CCOCC2)ccc1N=Nc1nc2ccccc2s1
inactive: dose: 100.0 mg/kg/injection, schedule: Q01DX001 (ip), vehicle: saline 89 % of control | dose: 200.0 mg/kg/injection, schedule: Q01DX001 (ip), vehicle: saline 88 % of control

C=C1C(=O)OC2(C)CCCCC12 (configuration not stated)
inactive: dose: 50.0 mg/kg/injection, schedule: Q01DX009 (ip), vehicle: Klucel (hydroxypropylcellulose) (HPC) 92 % of control | dose: 100.0 mg/kg/injection, schedule: Q01DX009 (ip), vehicle: Klucel (hydroxypropylcellulose) (HPC) 100 % of control | dose: 200.0 mg/kg/injection, schedule: Q01DX009 (ip), vehicle: Klucel (hydroxypropylcellulose) (HPC) 93 % of control

CCC=Nc1c(O)cc(-c2ccccc2)n(C)c1=O
inactive: dose: 60.0 mg/kg/injection, schedule: Q01DX005 (ip), vehicle: saline with Tween-80 94 % of control | dose: 120.0 mg/kg/injection, schedule: Q01DX005 (ip), vehicle: saline with Tween-80 100 % of control

O=[N+]([O-])c1ccc(/C=C/Oc2ccccc2)o1
inactive: dose: 50.0 mg/kg/injection, schedule: Q01DX009 (ip), vehicle: suspension in saline 111 % of control | dose: 100.0 mg/kg/injection, schedule: Q01DX009 (ip), vehicle: suspension in saline 110 % of control | dose: 200.0 mg/kg/injection, schedule: Q01DX009 (ip), vehicle: suspension in saline 111 % of control

O=S(=O)(O)c1ccc(N=Nc2c(S(=O)(=O)O)cc3cc(S(=O)(=O)O)cc(O)c3c2O)cc1
inactive: [3] 93 % of control | [4] 99 % of control | [5] 106 % of control

O=c1[nH]cnc2cc3cn[nH]c3cc12
inactive: [12] 91 % of control | [13] 96 % of control | [14] 95 % of control

C/C=C1/CN2CCc3c4n(c5ccccc35)[C@H](C(=O)OC)[C@H]1C[C@@H]42
inactive: dose: 12.5 mg/kg/injection, schedule: Q01DX005 (ip), vehicle: acid diluted with saline 107 % of control | dose: 25.0 mg/kg/injection, schedule: Q01DX005 (ip), vehicle: acid diluted with saline 94 % of control | dose: 50.0 mg/kg/injection, schedule: Q01DX005 (ip), vehicle: acid diluted with saline 98 % of control | dose: 100.0 mg/kg/injection, schedule: Q01DX005 (ip), vehicle: acid diluted with saline 100 % of control

Oc1ccccc1-c1cc(-c2ccccc2)nc(NCCCNc2nc(-c3ccccc3)cc(-c3ccccc3O)n2)n1
inactive: [9] 92 % of control | [10] 88 % of control | [11] 86 % of control

CCCCCCCCCCCC1=C(O)C(=O)C(Cl)=C(O)C1=O
inactive: dose: 12.5 mg/kg/injection, schedule: Q01DX005 (ip), vehicle: saline with Tween-80 98 % of control | dose: 25.0 mg/kg/injection, schedule: Q01DX005 (ip), vehicle: saline with Tween-80 97 % of control | [12] 102 % of control and 90 % of control

Cc1ccc(C(=Nc2ccccc2Cl)N(O)c2ccccc2)cc1
inactive: [9] 107 % of control | [10] 102 % of control | [11] 95 % of control

Cc1onc(-c2c(Cl)cccc2Cl)c1C(=O)Nc1ccc(Cl)c(Cl)c1Cl
inactive: dose: 60.0 mg/kg/injection, schedule: Q01DX005 (ip), vehicle: Klucel (hydroxypropylcellulose) (HPC) 96 % of control | dose: 120.0 mg/kg/injection, schedule: Q01DX005 (ip), vehicle: Klucel (hydroxypropylcellulose) (HPC) 93 % of control | dose: 240.0 mg/kg/injection, schedule: Q01DX005 (ip), vehicle: Klucel (hydroxypropylcellulose) (HPC) 92 % of control

NCC(=O)NC1(C(=O)O)CCCC1 (H-Gly-[Ac5c]-OH)
inactive: dose: 25.0 mg/kg/injection, schedule: Q01DX009 (ip), vehicle: saline 118 % of control | [3] 118 % of control | [4] 122 % of control | [6] 95 % of control | [5] 105 % of control | [7] 100 % of control | dose: 400.0 mg/kg/injection, schedule: Q01DX009 (ip), vehicle: saline 93 % of control | [8] 108 % of control

CC(=O)Nc1c([N+](=O)[O-])cc2c3c(cccc13)CC2
inactive: dose: 100.0 mg/kg/injection, schedule: Q01DX009 (ip), vehicle: saline with Tween-80 86 % of control | dose: 200.0 mg/kg/injection, schedule: Q01DX009 (ip), vehicle: saline with Tween-80 90 % of control

Cc1nnc2sc(C(F)(F)F)nn12
inactive: dose: 50.0 mg/kg/injection, schedule: Q01DX001 (ip), vehicle: Klucel (hydroxypropylcellulose) (HPC) 99 % of control | [1] 98 % of control | [2] 101 % of control

CCCCCCCC(=O)N/N=C(\CO)[C@]1(O)Cc2c(O)c3c(c(O)c2[C@@H](OC2CC(N)C(O)C(C)O2)C1)C(=O)c1c(OC)cccc1C3=O (some centres not stated)
inactive: dose: 1.25 mg/kg/injection, schedule: Q04DX003 (ip), vehicle: water 109 % of control | dose: 2.5 mg/kg/injection, schedule: Q04DX003 (ip), vehicle: water 109 % of control | dose: 5.0 mg/kg/injection, schedule: Q04DX003 (ip), vehicle: water 107 % of control | dose: 10.0 mg/kg/injection, schedule: Q04DX003 (ip), vehicle: water 119 % of control and 121 % of control | dose: 20.0 mg/kg/injection, schedule: Q04DX003 (ip), vehicle: water 123 % of control
active: dose: 80.0 mg/kg/injection, schedule: Q04DX003 (ip), vehicle: water 179 % of control

CN1C(=O)CNC(=O)c2ccc(Cl)cc21
inactive: [12] 108 % of control | [13] 90 % of control | [14] 115 % of control

Cc1cccc2c(NCCCCCCNc3cc(C)[n+](C)c4c(C)cccc34)cc(C)[n+](C)c12
inactive: dose: 3.12 mg/kg/injection, schedule: Q01DX005 (ip), vehicle: suspension in saline 112 % of control | dose: 6.25 mg/kg/injection, schedule: Q01DX005 (ip), vehicle: suspension in saline 106 % of control | dose: 12.5 mg/kg/injection, schedule: Q01DX005 (ip), vehicle: suspension in saline 112 % of control
